In data set [1] the test system is murine model of severe spinal cord injury (SCI). The data set is described as follows: Angiogenesis at the site of SCI (DiI labelling, BrdU/CD31). The data set is classed as in vivo, mouse. The protocol: (§1) All experiments were conducted at the Simpson Querrey Institute at Northwestern University. 182 CD1 mice (Charles River) were subjects of this study (N=38 Sham, N=38 IKVAV PA2 alone, N=38 IKVAV PA2+FGF2 PA1, N=38 IKVAV PA2+FGF2 PA2, N=12 IKVAV PA1, N=12 Backbone PA, N=6 IKVAV PA4). The age of animals used in the study was in the range of 10-16 weeks. 8 independent in vivo experiments were carried out (injury+PA injection) and each of the 8 experiments had animals of the exact same age which were injected with at least the 4 main treatment groups: Sham, IKVAV PA2 alone, IKVAV PA2+FGF2 PA1, and IKVAV PA2+FGF2 PA2. Animals were anesthetized using 2.5% isoflurane gas with oxygen. […]
(§2) PAs (dissolved in sterile NaCl 0.9% solution at 1 wt %) were injected 24 h after SCI using a glass capillary micropipette (Sutter Instruments, Novato, CA) (outer diameter, 100 m) coated with Sigmacote (Sigma-Aldrich) to reduce surface tension as described elsewhere (19). […] The micropipette was lowered to a depth of 750 m measured from the dorsal surface of the cord, and 4-6 μL of the diluted amphiphile solution was injected at 1 L/min. […]
To assess in vitro tubulogenesis and in vivo angiogenesis, an ImageJ (Fiji) script was established to automatically calculate 1) area fraction of blood vessels, 2) blood vessels length, and 3) number of branches. Images were processed, binarized and analyzed. […]

Data set [2] has the same test system. Put plainly: Hindlimb locomotor evaluation after SCI (BMS, footprint analysis). The note with it: three weeks post-injury. It counts as in vivo, mouse. As for the experimental part: as §1
Mice that passed this inclusion criterion were randomized into experimental groups for PA injection and were thereafter evaluated blind to their experimental condition.
as §2
The motor function was evaluated with the locomotor open-field rating scale on the Basso Mouse Scale (BMS). […]

Data set [3] can be described thus: Negative-stain TEM fiber width. The data set is classed as physicochemical. The protocol: To prepare the negatively stained TEM specimen, 7 μL of PA sample solution (1 wt % PA prepared in 150 mM NaCl and 3 mM diluted 10 times in MilliQ water) was applied on the shiny side of a glow discharged grid (300 mesh copper with carbon film, Electron Microscopy Sciences), followed by rinsing three times with MilliQ water to remove the excess of salt. The grid was then stained with filtered 2 wt % uranyl acetate aqueous solution and dried in air. TEM imaging was carried out on a JEOL 1230 microscope with a LaB6 filament at 100 kV accelerating voltage, equipped with a Gatan 831 CCD camera. A cold finger was introduced for sample stabilization during imaging.

Regarding C16-A2G2E4GIKVAV [IKVAV PA2], the “newly formed blood vessels (number of BrdU+/CD31+ cells)” value in data set [1] (12 weeks after injury) was “very modest but yet significantly increased”. In addition, the “vascular area fraction, vascular length, and branching” value in data set [1] (DiI-labelled vessels, transverse sections) is listed as “did not differ significantly”. The “BMS open field locomotor score” value in data set [2] is 4.3±0.5. In data set [3], this substance gave an average fiber width of 10.6±0.1 nm.

The record behind these values is patent US20240325548A1, “DYNAMIC BIOACTIVE SCAFFOLDS AND THERAPEUTIC USES THEREOF AFTER CNS INJURY” (Northwestern University, priority 2021, published 2024).
